This note sets out measurements from ChEMBL document CHEMBL1201862, “PubChem BioAssay data set” (2004).

Calls of active or inactive are those of the source.

The target in one test is T1, Insulin-degrading enzyme (Homo sapiens, UniProt P14735).
T1 sequence (P14735 whole entry): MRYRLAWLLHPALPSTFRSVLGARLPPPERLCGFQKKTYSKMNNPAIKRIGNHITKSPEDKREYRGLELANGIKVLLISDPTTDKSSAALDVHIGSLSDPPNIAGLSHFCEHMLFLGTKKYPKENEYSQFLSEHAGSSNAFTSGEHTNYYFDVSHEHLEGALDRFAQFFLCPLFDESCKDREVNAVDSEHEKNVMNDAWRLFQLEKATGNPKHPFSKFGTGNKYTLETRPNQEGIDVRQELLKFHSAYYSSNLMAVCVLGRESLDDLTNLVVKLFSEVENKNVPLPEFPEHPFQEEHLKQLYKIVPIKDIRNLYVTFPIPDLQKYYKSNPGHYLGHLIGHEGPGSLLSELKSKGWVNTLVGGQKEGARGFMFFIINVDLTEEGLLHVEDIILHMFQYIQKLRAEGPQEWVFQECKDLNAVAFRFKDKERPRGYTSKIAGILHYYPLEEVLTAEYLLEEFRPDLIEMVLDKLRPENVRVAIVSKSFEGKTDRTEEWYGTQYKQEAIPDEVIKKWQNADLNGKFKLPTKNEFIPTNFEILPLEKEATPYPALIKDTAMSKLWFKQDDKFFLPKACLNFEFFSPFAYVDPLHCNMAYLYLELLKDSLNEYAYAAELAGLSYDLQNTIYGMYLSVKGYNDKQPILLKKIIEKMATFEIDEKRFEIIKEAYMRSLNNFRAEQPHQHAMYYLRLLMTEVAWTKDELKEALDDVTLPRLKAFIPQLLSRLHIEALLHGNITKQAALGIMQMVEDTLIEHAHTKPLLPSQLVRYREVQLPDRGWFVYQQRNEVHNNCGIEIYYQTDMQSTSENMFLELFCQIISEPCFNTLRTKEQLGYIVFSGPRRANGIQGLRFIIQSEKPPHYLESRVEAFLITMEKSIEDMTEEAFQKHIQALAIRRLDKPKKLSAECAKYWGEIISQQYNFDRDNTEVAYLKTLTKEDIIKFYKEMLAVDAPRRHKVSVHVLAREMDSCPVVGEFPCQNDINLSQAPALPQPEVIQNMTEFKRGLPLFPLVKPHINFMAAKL
In words: Dose Response: Fluorescence polarization-based cell-based high throughput dose response assay for inhibitors of insulin-degrading enzyme (IDE). [Related pubchem assays: 434962 (Primary screen (IDE inhibitors in singlicate)), 449730 (Counterscreen (Cytotoxicity in triplicate)), 435028 (Confirmation (IDE inhibitors in triplicate)), 434984 (Summary …. The class given is functional.

Test [1] is described as follows: enhancers of respiration in Yfh1-depleted yeast, dose response, Friedreich's ataxia, plus single-dose screen (AID 1465).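 Further: yeast depleted of Yfh1p frataxin homolog grown on glycerol needing respiration; WST-1 tetrazolium dye reduction as measure of cellular dehydrogenase metabolic activity.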 The test is classed as functional.
The nature of test [2]: Counterscreen for IDE inhibitors: Luminescence-based cell-based high throughput dose response assay to identify compounds that are cytotoxic to HEK cells. [Related pubchem assays: 434962 (Primary screen (IDE inhibitors in singlicate)), 449730 (Counterscreen (Cytotoxicity in triplicate)), 435028 (Confirmation (IDE inhibitors in triplicate)) …. The test is classed as functional. As to conditions: HEK293. (The purpose of a counterscreen is to sort out artefacts and off-target activity.)

Another test has as its target Troponin, cardiac muscle (Homo sapiens, UniProt P19429+P45379+P63316). In words: Fluorescence-based biochemical high throughput dose response assay for activators of the calcium sensitivity of cardiac Regulated Thin Filaments (RTF). [Related pubchem assays (depositor defined):AID493008, AID493018, AID504382, AID504383]. The class given is protein-complex assay.
Another test addresses Bcl-2-like protein 10 (Homo sapiens, UniProt Q9HD36). In words: Biochemical TR3 FP assay of Bcl-B inhibitor potency, EC50 (AID 1243). The test is classed as functional.
Test [3] addresses DNA dC->dU-editing enzyme APOBEC-3G (Homo sapiens, UniProt Q9HC16). The class given is functional.
For test [4], the target named is DNA dC->dU-editing enzyme APOBEC-3A (Homo sapiens, UniProt P31941). In words: Dose Response confirmation of small molecule APOBEC3A DNA Deaminase Inhibitors via a fluorescence-based single-stranded DNA deaminase assay. [Related pubchem assays (depositor defined):AID493011, AID493024]. The test is classed as functional.
Another test deals with HeLa. In words: Cytotoxicity counterscreen assay for transcriptional activators of heat shock protein 70 (Hsp70). [Related pubchem assays: 1203, 1252 ]. As to conditions: Homo sapiens. The test is classed as functional.
Test [5] concerns HEK293. In words: PMA/Ionomycin induced NF-kB luciferase assay in 293- NF-kB-Luc stable cells. [Related pubchem assays: 1299, 1270, 1295, 1375, 1287, 1281, 1293, 1291, 1289, 1280, 465, 1364, 1282, 1372, 1365, 1370, 1367, 1366, 1269, 1373, 1292, 1290, 1302, 1371, 1283, 1271, 1294, 1374, 1368, 1369 ]. The class given is functional, cell-based. The settings on record: Homo sapiens.

For test [6], the system named is HEK293. In words: PMA/Ionomycin-induced IL-8 production in HEK293- NF-kB-Luc stable cells. [Related pubchem assays: 1299, 1295, 1375, 1287, 1281, 1293, 1291, 1289, 1280, 465, 1364, 1282, 1372, 1365, 1367, 1366, 1266, 1269, 1373, 1292, 1290, 1302, 1371, 1283, 1271, 1294, 1374, 1368, 1369 ]. The test is classed as functional, cell-based. The settings on record: Homo sapiens.

Test [7] concerns the target Luciferin 4-monooxygenase (Photinus pyralis, UniProt P08659). In words: In vitro luciferase assay using purified luciferase. [Related pubchem assays: 1299, 1270, 1295, 1375, 1287, 1281, 1293, 1291, 1289, 1280, 465, 1364, 1282, 1372, 1365, 1370, 1367, 1366, 1266, 1373, 1292, 1290, 1302, 1371, 1283, 1271, 1294, 1374, 1368, 1369 ].
Test [8] relates to HEK293. In words: Cytotoxicity assay in HEK293 cells. [Related pubchem assays (depositor defined):AID1266, AID1269, AID1270, AID1271, AID1280, AID1281, AID1282, AID1283, AID1287, AID1289, AID1290, AID1291, AID1292, AID1293, AID1294, AID1295, AID1299, AID1302, AID1364, AID1365, AID1366, AID1367, AID1369, AID1370, AID1371, AID1372, AID1373, AID1374, AID1375, AID1384 …. The class given is functional, cell-based. As to conditions: Homo sapiens.

The test system of test [9] is HEK293. In words: TNF Induced NF-kB Luciferase in 293-NF-kB-Luc Stable Cells. [Related pubchem assays: 1266, 1299, 1269, 1373, 1292, 1290, 1302, 1371, 1283, 1270, 1295, 1271, 1375, 1294, 1374, 1281, 1293, 1291, 1289, 1280, 465, 1368, 1364, 1282, 1372, 1365, 1369, 1370, 1367, 1366 ]. The class given is functional, cell-based. The settings on record: Homo sapiens.
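Wherever CC50 is given: cells exposed to compound for 16 hours before readout.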

Chain of Luciferin 4-monooxygenase (P08659 whole entry): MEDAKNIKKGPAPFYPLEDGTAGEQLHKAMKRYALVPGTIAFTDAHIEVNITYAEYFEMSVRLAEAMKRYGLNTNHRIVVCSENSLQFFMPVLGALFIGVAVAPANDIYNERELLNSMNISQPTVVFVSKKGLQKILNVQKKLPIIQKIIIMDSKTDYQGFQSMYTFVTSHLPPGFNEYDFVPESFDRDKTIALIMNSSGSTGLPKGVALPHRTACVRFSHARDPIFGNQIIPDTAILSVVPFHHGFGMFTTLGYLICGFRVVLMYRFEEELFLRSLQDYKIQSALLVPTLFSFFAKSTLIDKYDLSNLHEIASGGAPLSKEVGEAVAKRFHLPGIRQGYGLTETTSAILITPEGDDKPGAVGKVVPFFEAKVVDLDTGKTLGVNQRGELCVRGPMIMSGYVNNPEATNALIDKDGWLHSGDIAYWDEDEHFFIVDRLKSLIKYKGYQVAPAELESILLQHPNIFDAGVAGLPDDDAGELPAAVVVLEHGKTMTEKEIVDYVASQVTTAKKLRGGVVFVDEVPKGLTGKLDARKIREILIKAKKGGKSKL
Chain of Bcl-2-like protein 10 (Q9HD36 whole entry): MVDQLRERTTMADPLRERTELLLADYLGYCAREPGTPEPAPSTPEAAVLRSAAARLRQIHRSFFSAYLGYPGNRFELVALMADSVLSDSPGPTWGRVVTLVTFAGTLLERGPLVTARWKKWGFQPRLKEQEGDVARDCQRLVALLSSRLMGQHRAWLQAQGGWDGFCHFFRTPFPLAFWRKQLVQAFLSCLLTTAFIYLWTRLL
Chain of DNA dC->dU-editing enzyme APOBEC-3G (Q9HC16 whole entry): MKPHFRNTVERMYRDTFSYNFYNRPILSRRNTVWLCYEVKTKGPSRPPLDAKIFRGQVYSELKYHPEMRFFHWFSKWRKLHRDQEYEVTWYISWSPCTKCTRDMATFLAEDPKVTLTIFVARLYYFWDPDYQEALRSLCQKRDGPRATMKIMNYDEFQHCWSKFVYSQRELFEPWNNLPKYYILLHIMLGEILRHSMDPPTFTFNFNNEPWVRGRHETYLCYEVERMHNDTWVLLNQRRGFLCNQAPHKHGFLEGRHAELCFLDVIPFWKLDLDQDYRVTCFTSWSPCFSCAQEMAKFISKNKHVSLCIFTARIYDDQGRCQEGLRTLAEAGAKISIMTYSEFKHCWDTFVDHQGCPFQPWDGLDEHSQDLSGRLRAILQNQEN
Chain of DNA dC->dU-editing enzyme APOBEC-3A (P31941 whole entry): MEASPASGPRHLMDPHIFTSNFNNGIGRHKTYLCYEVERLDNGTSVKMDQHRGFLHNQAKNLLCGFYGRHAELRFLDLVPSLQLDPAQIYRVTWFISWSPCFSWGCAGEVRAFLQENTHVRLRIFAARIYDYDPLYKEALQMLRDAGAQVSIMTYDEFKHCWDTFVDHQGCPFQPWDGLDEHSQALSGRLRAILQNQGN

For orientation: IC50 means the concentration that inhibits the measured activity by half. As usually defined, the EC50 is the midpoint of the concentration-response curve. As for `CCOC(=O)/C(=C/C1=CC(=C/N(C)C)/C(=O)O1)C(C)=O`, the figures for the IC50 (against Insulin-degrading enzyme; in test [2]) were 22.1 µM (not active) and > 55.7 µM (not active), respectively. Further, the EC50 in test [1] is > 100 µM (active); at Troponin, cardiac muscle, 7.74 µM (active).
Take `O=C(O)Cc1c[nH]c2ccc(O)cc12`: the EC50 on Bcl-2-like protein 10 was 7.88 µM (active).
In general, CC50 refers to the concentration at which the toxic effect on the cells reaches its halfway point. Read a low CC50 as harm at low concentration. `COc1ccc(N=Nc2[nH]c3ccc(C)cc3c2O)cc1`: the IC50 was 7.98 µM (active) in test [3] and 8.35 µM (active) in [4]. The CC50 with HeLa is listed as > 33 µM (not active).
Regarding `O=C(NC1CCCCCC1)c1ccc([N+](=O)[O-])o1`, the EC50 in the test on HEK293 [5] was 3.29 µM (active); in the test on HEK293 [6], 4.02 µM (not active); in [7], > 8 µM (not active); in the test on HEK293 [8], > 8 µM (inactive); with HEK293 [9] it was > 8 µM (not active).
